This is an account of results in PubChem BioAssay AID248 (DTP/NCI, 2004).

This experiment deals with L1210 leukemia ip in BDF1 mice, survival T/C. Kind of experiment: NCI In Vivo Anticancer Drug Screen. Data for tumor model L1210 Leukemia (intraperitoneal) in B6D2F1 (BDF1) mice. The conditions noted are these: endpoint: mean survival time, higher = longer survival. In outline:
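Each compound was tested against a transplantable tumor grown in mice. The endpoint was survival, with treated animals benchmarked against vehicle controls as a simple ratio.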

Where [1] appears, read: dose: 100.0 mg/kg/injection, schedule: Q01DX001 (ip), vehicle: Klucel (hydroxypropylcellulose) (HPC).
[2] abbreviates: dose: 200.0 mg/kg/injection, schedule: Q01DX001 (ip), vehicle: Klucel (hydroxypropylcellulose) (HPC).
The mark [3] stands for this setting: dose: 400.0 mg/kg/injection, schedule: Q01DX001 (ip), vehicle: Klucel (hydroxypropylcellulose) (HPC).
Where [4] appears, read: dose: 100.0 mg/kg/injection, schedule: Q01DX001 (ip), vehicle: saline.
Setting [5] is: dose: 200.0 mg/kg/injection, schedule: Q01DX001 (ip), vehicle: saline.
Where [6] appears, read: dose: 400.0 mg/kg/injection, schedule: Q01DX001 (ip), vehicle: saline.
[7] abbreviates: dose: 50.0 mg/kg/injection, schedule: Q01DX009 (ip), vehicle: saline with Tween-80.
Where [8] appears, read: dose: 100.0 mg/kg/injection, schedule: Q01DX009 (ip), vehicle: saline.
The mark [9] stands for this setting: dose: 100.0 mg/kg/injection, schedule: Q04DX003 (ip), vehicle: saline with Tween-80.
The mark [10] stands for this setting: dose: 100.0 mg/kg/injection, schedule: Q04DX003 (ip), vehicle: saline.
[11] abbreviates: dose: 200.0 mg/kg/injection, schedule: Q01DX009 (ip), vehicle: saline.
[12] abbreviates: dose: 200.0 mg/kg/injection, schedule: Q04DX003 (ip), vehicle: saline with Tween-80.
The mark [13] stands for this setting: dose: 200.0 mg/kg/injection, schedule: Q04DX003 (ip), vehicle: saline.
The mark [14] stands for this setting: dose: 400.0 mg/kg/injection, schedule: Q01DX009 (ip), vehicle: saline.
[15] abbreviates: dose: 400.0 mg/kg/injection, schedule: Q04DX003 (ip), vehicle: saline with Tween-80.
The mark [16] stands for this setting: dose: 400.0 mg/kg/injection, schedule: Q04DX003 (ip), vehicle: saline.
Setting [17] is: dose: 75.0 mg/kg/injection, schedule: Q01DX001 (ip), vehicle: saline.
Where [18] appears, read: dose: 150.0 mg/kg/injection, schedule: Q01DX001 (ip), vehicle: saline.

Where “and” joins values, the source holds several entries; their conditions need not be identical. Equal values may be shown once. Inconclusive results and toxic doses are left out.

For the compound `CSc1ncc(CO)c(NCc2ccco2)n1`, the T/C was 98 % of control under setting [1], 98 % of control under setting [2] and 98 % of control under setting [3].

For the compound `CC(C)CCC[C@@H](C)[C@H]1CC[C@H]2[C@@H]3CC[C@H]4C[C@H]5N[C@H]5C[C@]4(C)[C@H]3CC[C@]12C`, the T/C was 93 % of control under setting [1] and 90 % of control under setting [3].

Turning to `COc1ccc(COC(=O)Nc2cc(OC)ccc2OC)cc1`, the T/C is, setting by setting: (dose: 100.0 mg/kg/injection, schedule: Q04DX002 (ip), vehicle: Klucel (hydroxypropylcellulose) (HPC)) 101 % of control; (dose: 200.0 mg/kg/injection, schedule: Q04DX002 (ip), vehicle: Klucel (hydroxypropylcellulose) (HPC)) 101 % of control; (dose: 400.0 mg/kg/injection, schedule: Q04DX002 (ip), vehicle: Klucel (hydroxypropylcellulose) (HPC)) 107 % of control.

With `CC1CCN(C(=O)NCCCCCCNC(=O)N2CCC(C)CC2)CC1`, the T/C by setting is: (dose: 100.0 mg/kg/injection, schedule: Q01DX009 (ip), vehicle: Klucel (hydroxypropylcellulose) (HPC)) 100 % of control; (dose: 200.0 mg/kg/injection, schedule: Q01DX009 (ip), vehicle: Klucel (hydroxypropylcellulose) (HPC)) 97 % of control; (dose: 400.0 mg/kg/injection, schedule: Q01DX009 (ip), vehicle: Klucel (hydroxypropylcellulose) (HPC)) 90 % of control.

On to `O=C(O)c1c(O)c2cc(Br)ccc2oc1=O`, for which the T/C runs as follows: under setting [4], 98 % of control; under setting [5], 98 % of control; under setting [6], 102 % of control.

In the case of `C=CCn1c(-c2cccs2)nc2c(=S)nc[nH]c21`, the T/C was 95 % of control (dose: 65.0 mg/kg/injection, schedule: Q01DX009 (ip), vehicle: steriod suspending solution); 88 % of control (dose: 180.0 mg/kg/injection, schedule: Q01DX009 (ip), vehicle: steriod suspending solution); 89 % of control (dose: 400.0 mg/kg/injection, schedule: Q01DX001 (ip), vehicle: steriod suspending solution); 89 % of control (dose: 800.0 mg/kg/injection, schedule: Q01DX001 (ip), vehicle: steriod suspending solution).

For the compound `CCNC1CCCCC1`, the T/C is 104 % of control under setting [7] and 107 % of control (dose: 100.0 mg/kg/injection, schedule: Q01DX009 (ip), vehicle: saline with Tween-80).

As for `NC(=O)c1n[nH]nc1N1CC[N+](CCCl)=N1`, the T/C (dose: 44.0 mg/kg/injection, schedule: Q01DX009 (ip), vehicle: saline with Tween-80) is 110 % of control; the T/C under setting [7] is 111 % of control; the T/C (dose: 50.0 mg/kg/injection, schedule: Q04DX003 (ip), vehicle: saline with Tween-80) is 105 % of control; the T/C (dose: 67.0 mg/kg/injection, schedule: Q01DX009 (ip), vehicle: saline with Tween-80) was 107 % of control; the T/C under setting [8] is 96 % of control; the T/C under setting [9] was 97 % of control and 113 % of control. In addition, the T/C under setting [10] is 107 % of control; the T/C (dose: 150.0 mg/kg/injection, schedule: Q01DX009 (ip), vehicle: saline with Tween-80) is 112 % of control; the T/C under setting [11] is 91 % of control; the T/C under setting [12] was 118 % of control and 121 % of control; the T/C under setting [13] was 105 % of control; the T/C under setting [14] is 95 % of control. The T/C by setting is: under setting [15], 113 % of control; under setting [16], 94 % of control.

`C[N+](C)(CC(=O)Nc1ccc(Cl)c(Cl)c1)CC(=O)c1ccc(Cl)cc1`: the T/C reads like this: (dose: 6.25 mg/kg/injection, schedule: Q01DX009 (ip), vehicle: saline) 96 % of control; (dose: 12.5 mg/kg/injection, schedule: Q01DX009 (ip), vehicle: saline) 96 % of control; (dose: 25.0 mg/kg/injection, schedule: Q01DX009 (ip), vehicle: saline) 89 % of control; under setting [9], 92 % of control.

Regarding `CCCn1c(C)nc2c1C(=O)c1ccccc1C2=O`, the T/C runs as follows: under setting [4], 94 % of control; under setting [10], 86 % of control; under setting [5], 98 % of control; under setting [13], 88 % of control; under setting [6], 103 % of control; under setting [16], 91 % of control.

As to `COC(=O)c1cc2ccccc2cc1OCC(=O)NCc1ccc(Cl)cc1`, the T/C reads like this: (dose: 50.0 mg/kg/injection, schedule: Q01DX001 (ip), vehicle: Klucel (hydroxypropylcellulose) (HPC)) 105 % of control; under setting [1], 94 % of control; under setting [2], 97 % of control.

`Cc1ccc(C(=O)OCC2OC(n3cnc4c(=S)nc(N)[nH]c43)C(OC(=O)c3ccc(C)cc3)C2OC(=O)c2ccc(C)cc2)cc1` (stereo unspecified): the T/C was 95 % of control under setting [4]; 106 % of control under setting [8]; 101 % of control under setting [5]; 112 % of control under setting [11]; 111 % of control (dose: 400.0 mg/kg/injection, schedule: Q01DX001 (ip), vehicle: carboxymethylcellulose (CMC)); 106 % of control under setting [6]. Also, the T/C is 116 % of control under setting [14]; 105 % of control (dose: 600.0 mg/kg/injection, schedule: Q01DX001 (ip), vehicle: carboxymethylcellulose (CMC)); 119 % of control (dose: 800.0 mg/kg/injection, schedule: Q01DX001 (ip), vehicle: carboxymethylcellulose (CMC)); 172 % of control (dose: 800.0 mg/kg/injection, schedule: Q01DX009 (ip), vehicle: saline); 116 % of control (dose: 1000.0 mg/kg/injection, schedule: Q01DX001 (ip), vehicle: carboxymethylcellulose (CMC)).

Take `OCC1OC(n2c(Cl)nc3ccccc32)C(O)C1O` (stereo unspecified): the T/C under setting [4] is 97 % of control, the T/C under setting [5] is 103 % of control and the T/C under setting [6] is 103 % of control.

Take `C=C(C)C1(C)C(=O)NC(=S)NC1=O`: the T/C was 108 % of control under setting [17]; 100 % of control under setting [18]; 107 % of control (dose: 300.0 mg/kg/injection, schedule: Q01DX001 (ip), vehicle: saline).

`O=C(c1ccccc1)C1CN(C2CCCCC2)C1c1ccccc1` (stereo unspecified): the T/C was 109 % of control and 97 % of control under setting [1]; 95 % of control (dose: 100.0 mg/kg/injection, schedule: Q04DX003 (ip), vehicle: Klucel (hydroxypropylcellulose) (HPC)); 117 % of control and 99 % of control under setting [2]; 93 % of control (dose: 200.0 mg/kg/injection, schedule: Q04DX003 (ip), vehicle: Klucel (hydroxypropylcellulose) (HPC)); 97 % of control and 91 % of control under setting [3]; 97 % of control (dose: 400.0 mg/kg/injection, schedule: Q04DX003 (ip), vehicle: Klucel (hydroxypropylcellulose) (HPC)).

On to `CCOP(=O)(OCC)Oc1cc(C)c(N(C)C)c(C)c1`, for which the T/C is 101 % of control under setting [17] and 90 % of control under setting [18].

For the compound `CC(=O)N=c1sccn1Cc1ccccc1`, the T/C (dose: 75.0 mg/kg/injection, schedule: Q01DX001 (ip), vehicle: carboxymethylcellulose (CMC)) was 95 % of control; the T/C (dose: 150.0 mg/kg/injection, schedule: Q01DX001 (ip), vehicle: carboxymethylcellulose (CMC)) is 98 % of control; the T/C (dose: 300.0 mg/kg/injection, schedule: Q01DX001 (ip), vehicle: carboxymethylcellulose (CMC)) is 98 % of control.

For the compound `CCOC(=O)N/N=C/c1ccc(N(C)CCC#N)cc1`, the T/C by setting is: (dose: 100.0 mg/kg/injection, schedule: Q01DX001 (ip), vehicle: saline with Tween-80) 100 % of control; (dose: 100.0 mg/kg/injection, schedule: Q04DX002 (ip), vehicle: saline with Tween-80) 95 % of control and 107 % of control; under setting [9], 102 % of control; (dose: 200.0 mg/kg/injection, schedule: Q01DX001 (ip), vehicle: saline with Tween-80) 103 % of control; (dose: 200.0 mg/kg/injection, schedule: Q04DX002 (ip), vehicle: saline with Tween-80) 96 % of control and 104 % of control; under setting [12], 93 % of control and 98 % of control. In addition, the T/C runs as follows: (dose: 400.0 mg/kg/injection, schedule: Q04DX002 (ip), vehicle: saline with Tween-80) 98 % of control and 107 % of control; under setting [15], 94 % of control and 96 % of control.

For the compound `O=C(Nc1ccccc1)c1ccccc1C(O)(c1ccccc1)c1ccccc1`, the T/C was 97 % of control under setting [4], 86 % of control under setting [5] and 102 % of control under setting [6].
